Publication PMC6492180, “Cytome micronucleus assays with a metabolically competent human derived liver cell line (Huh6): A promising approach for routine testing of chemicals?” (Environmental and Molecular Mutagenesis, 2018)
Where two headings read alike, the source gives them in different places. Marks after values point to notes of the source that are not given here.

Tests used:
Hep3B = settings: Hep3B; ref Majer et al., 2004; cited from earlier work
Human lymphocytes = settings: Human lymphocytes, + S9; ref Katic et al., 2010; cited from earlier work
[1] = ref IARC (2018); cited from earlier work
Huh6 cells = tested on: Huh6 cells
Method: All experiments were performed in duplicate.
3.8–4.0 × 10^5 cells per well were seeded into 6‐well plates with 3 mL of RPMI (4% FBS) for 12 hr, then dilutions of stock solutions of the diagnostic mutagens were added for different time periods (4, 24, and 48 hr). In each experimental series solvent controls were included. Subsequently, the cells were washed twice with 3.0 mL medium. […] Finally, the cells were washed and trypsinised. Afterwards the cells were washed twice with 8.0 mL RPMI and collected on slides by cytocentrifugation (600 rpm, 5 min). The slides were air dried, fixed, and stained with DiffQuick according to the instructions of the manufacturer. For each experimental point, two cultures were tested per dose. From each culture ≥1,000 BN cells were evaluated under 400‐fold magnification (Nikon Photophot‐FXA, Tokyo, Japan). At least 2,000 binucleated cells were analyzed per dose for the determination of the different nuclear anomalies (MN, NBuds, and NBs).
The experiments were performed as described in the previous chapter. The cells were exposed only to one dose of the different mutagens and were cultivated after the seeding in 6‐well plates which contained 4% or 10% FBS in RPMI, respectively.
Data were evaluated by generalized linear model with Poisson counts. Chi‐square tests for overdispersion were applied. […] P values ≤0.05 were considered statistically significant.
^150-60 000 cells were seeded in 6 well plates with 3 ml RPMI (4% FBS), subsequently different solutions of the test compound (dissolved in medium) were added. After treatment for different time periods, the cells was washed and processed as described in the Material and Method section. […] From each culture 1000 binoculated cells were evaluated. BN-MN – number of micronucleated cells; MN - total number of micronuclei; CBPI – cytokinesis-block proliferation index
^1The experiments were conducted essentially as described in the footnote of Table S1A-I. *p≤0.05

HepG2 = settings: HepG2, cited from earlier work
[2] = 10% FBS, 24 hr treatment, 100 µM

## CN(C)N=O [NDMA, N‐nitrosodimethylamine]
Hep3B
  Lowest effective concentration (LOEC) in micronucleus experiments: Negative
  NOEC (highest no observable effect concentration tested): 180000 µM
Human lymphocytes
  Lowest effective concentration (LOEC) in micronucleus experiments: Negative
  NOEC (highest no observable effect concentration tested): 67500 µM
[1]
  IARC classification: Methylation of the DNA; activation: CYP2E1; IARC: Group 2A
Huh6 cells; 4% FBS
  MN effects after 24 hr (or longer) compared with 4 hr treatment (in words): more pronounced effects
Huh6 cells; 4% FBS, 4hrs, 50 mM
  BN-MN (number of micronucleated cells): 21.0 ± 1.4 ‰
  Bridges: 0.5 ± 0.7 ‰
  Buds: 16.5 ± 2.1 ‰
  CBPI: 1.7 ± 0.1
  MN (total number of micronuclei): 21.5 ± 0.7 ‰
Huh6 cells; 4% FBS, 4hrs, 100 mM
  BN-MN (number of micronucleated cells): 24.0 ± 2.8 ‰
  Bridges: 0.5 ± 0.7 ‰
  Buds: 20.0 ± 1.4 ‰
  CBPI: 1.7 ± 0.0
  MN (total number of micronuclei): 26.5 ± 0.7 ‰
Huh6 cells; 4% FBS, 4hrs, 200 mM
  BN-MN (number of micronucleated cells): 26.5 ± 2.1* ‰
  Bridges: 0.5 ± 0.7 ‰
  Buds: 25.5 ± 5.0* ‰
  CBPI: 1.5 ± 0.0
  MN (total number of micronuclei): 27.5 ± 0.7* ‰
Huh6 cells; 4% FBS, 24hrs, 25 mM
  BN-MN (number of micronucleated cells): 20.5 ± 0.7 ‰
  Bridges: 0.0 ± 0.0 ‰
  Buds: 7.0 ± 1.4 ‰
  CBPI: 1.8 ± 0.1
  MN (total number of micronuclei): 20.5 ± 0.7 ‰
Huh6 cells; 4% FBS, 24hrs, 50 mM
  BN-MN (number of micronucleated cells): 21.5 ± 5.0 ‰
  Bridges: 0.5 ± 0.7 ‰
  Buds: 9.5 ± 2.1* ‰
  CBPI: 1.8 ± 0.1
  MN (total number of micronuclei): 22.5 ± 3.5 ‰
Huh6 cells; 4% FBS, 24hrs, 100 mM
  BN-MN (number of micronucleated cells): 30.0 ± 2.8* ‰
  Bridges: 3.5 ± 0.7 ‰
  Buds: 13.0 ± 4.2* ‰
  CBPI: 1.7 ± 0.0
  MN (total number of micronuclei): 32.0 ± 2.8* ‰
Huh6 cells; 4% FBS, 48hrs, 25 mM
  BN-MN (number of micronucleated cells): 20.5 ± 0.7 ‰
  Bridges: 0.5 ± 0.7 ‰
  Buds: 23.0 ± 2.8 ‰
  CBPI: 1.8 ± 0.0
  MN (total number of micronuclei): 21.5 ± 2.1 ‰
Huh6 cells; 4% FBS, 48hrs, 50 mM
  BN-MN (number of micronucleated cells): 22.0 ± 4.2 ‰
  Bridges: 1.0 ± 1.4 ‰
  Buds: 27.0 ± 4.2 ‰
  CBPI: 1.8 ± 0.0
  MN (total number of micronuclei): 23.5 ± 5.0 ‰
Huh6 cells; 4% FBS, 48hrs, 100 mM
  BN-MN (number of micronucleated cells): 40.5 ± 2.1* ‰
  Bridges: 3.0 ± 1.4 ‰
  Buds: 35.5 ± 3.5* ‰
  CBPI: 1.7 ± 0.1
  MN (total number of micronuclei): 53.0 ± 4.2* ‰
Huh6 cells; [2]
  BN-MN (number of micronucleated cells): 33.0 ± 2.8*
  Bridges: 3.5 ± 0.7
  Buds: 28.0 ± 2.8
  CBPI: 1.9 ± 0.0
  MN (total number of micronuclei): 34.5 ± 5.0*
Huh6 cells; Huh6
  Lowest effective concentration (LOEC) in micronucleus experiments: 100000 µM
HepG2; ref Majer et al., 2004
  Lowest effective concentration (LOEC) in micronucleus experiments: 30000 µM
HepG2; ref Natarajan and Darroudi (1991)
  MN induction after 28 hr compared with 1 hr exposure (in words): stronger effects
HepG2; ref Valentin‐Severin et al., 2003
  Lowest effective concentration (LOEC) in micronucleus experiments: 10000 µM
